Source: PubChem BioAssay (NCI)
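48-hour exposure; five concentrations; linearly interpolated endpoints. The concentration for full growth arrest is given as TGI.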

How the values were obtained:
Test in all cases: NCI anticancer screen, dose series, 48 h
[1] = test system: NCI-H226 lung
[2] = test system: DU-145 prostate
[3] = test system: 786-0 renal
[4] = test system: SF-268 CNS
[5] = test system: MOLT-4 leukemia
[6] = test system: SK-MEL-2 melanoma
[7] = test system: EKVX NSCLC
[8] = test system: BT-549 breast
[9] = test system: HL-60(TB) leukemia
[10] = test system: HOP-62 NSCLC
[11] = test system: NCI-H522 lung
[12] = test system: SW-620 colon
[13] = test system: ACHN renal
[14] = test system: SF-295 CNS
[15] = test system: NCI/ADR-RES ovarian
[16] = test system: SK-OV-3 ovarian
[17] = test system: SNB-19 CNS
[18] = test system: A549 NSCLC
[19] = test system: MDA-MB-231 breast
[20] = test system: CCRF-CEM leukemia
[21] = test system: SK-MEL-28 melanoma
[22] = test system: MCF7 breast
[23] = test system: MDA-N
[24] = test system: HT29 colon
[25] = test system: RXF 393 renal
[26] = test system: TK-10 renal
[27] = test system: COLO 205 colon
[28] = test system: HS 578T breast
[29] = test system: K-562 leukemia
[30] = test system: OVCAR-5 ovarian
[31] = test system: NCI-H23 lung
[32] = test system: HCT-15 colon
[33] = test system: OVCAR-4 ovarian
[34] = test system: HCC-2998 colon
[35] = test system: IGROV1 ovarian
[36] = test system: UACC-257 melanoma
[37] = test system: NCI-H460 lung
[38] = test system: SF-539 CNS
[39] = test system: KM12 colon
[40] = test system: LOX IMVI melanoma
[41] = test system: CAKI-1 renal
[42] = test system: PC-3 prostate
[43] = test system: UACC-62 melanoma
[44] = test system: SN12C renal
[45] = test system: UO-31 renal
[46] = test system: HCT-116 colon
[47] = test system: SR leukemia
[48] = test system: MALME-3M melanoma
[49] = test system: SK-MEL-5 melanoma
[50] = test system: OVCAR-8 ovarian
[51] = test system: T-47D breast
[52] = test system: SNB-75 CNS
[53] = test system: M14 melanoma
[54] = test system: U251 CNS
[55] = test system: MDA-MB-435
[56] = test system: OVCAR-3 ovarian
[57] = test system: RPMI-8226 leukemia

Measured: TGI

CCOC(=O)C1(C#N)CC1
not listed: [55] | [56] | [57]
> 100 µM: all other assays above

CC(=O)OC1[C@H](OC(C)=O)C2=C(C)[C@@H](OC(C)=O)C[C@@]2(C(C)(C)O)[C@@H](OC(C)=O)[C@H]2[C@@]1(C)[C@@H](OC(C)=O)CC(OC(C)=O)[C@]21CO1 (stereo not given in full)
not listed: [8] | [15] | [19] | [34] | [35] | [37]
> 100 µM: all other assays above
